From patent US8501786B2, “Hydroxymethyl pyrrolidines as beta 3 adrenergic receptor agonists” (Merck Sharp & Dohme Corp., priority 2009, dated 2013)

target: T1, human β3 adrenergic receptor (Homo sapiens, UniProt P13945); experiment: Functional assay: cAMP production (LANCE TR-FRET) in CHO cells stably transfected with cloned β3 adrenergic receptor; assay type: cell-based; conditions: Table 3; cAMP production, CHO cells expressing human β3 AR; read-out: Human β3 functional
T1 construct: stably transfected with the cloned β-adrenergic receptor (β1, β2 or β3); expressed in transfected cells; host or cells: Chinese hamster ovary (CHO) cells, stably transfected
Method: Functional Assay: cAMP production in response to ligand is measured according to Barton, et al. (1991, Agonist-induced desensitization of D2 dopamine receptors in human Y-79 retinoblastoma cells. Mol. Pharmacal. v3229:650-658) modified as follows, cAMP production is measured using a homogenous time-resolved fluorescence resonance energy transfer immunoassay (LANCE™, Perkin Elmer) according to the manufacture's instructions. Chinese hamster ovary (CHO) cells, stably transfected with the cloned β-adrenergic receptor (β1, β2 or β3) are harvested after 3 days of subculturing. Harvesting of cells is done with Enzyme-free Dissociation Media (Specialty Media). Cells are then counted and resuspended in assay buffer (Hank's Balanced salt solution supplemented with 5 mM HEPES, […]) containing a phosphodiesterase inhibitor (IBMX, 0.6 mM). The reaction is initiated by mixing 6,000 cells in 6 μL with 6 μL Alexa Fluor labeled cAMP antibody (LANCE™ kit) which is then added to an assay well containing 12 μL of compound (diluted in assay buffer to 2× final concentration). The reaction proceeds for 30 min at room temperature and is terminated by the addition of 24 ul detection buffer (LANCE™ kit). The assay plate is then incubated for 1 h at room temperature and time-resolved fluorescence measured on a Perkin Elmer Envision reader or equivalent. The unknown cAMP level is determined by comparing fluorescence levels to a cAMP standard curve.
The non-selective, full agonist β-adrenergic ligand isoproterenol is used at all three receptors to determine maximal stimulation. The human β3 adrenergic receptor (AR) selective ligand (S)-N-[4-[2-[[2-hydroxy-3-(4-hydroxyphenoxy)propyl]amino]ethyl]-phenyl]-4-iodobenzenesulfonamide is used as a control in all assays. Isoproterenol is titrated at a final concentration in the assay of 10^-10 M to 10-5 and the selective ligand (S)-N-[4-[2-[[2-hydroxy-3-(4-hydroxyphenoxy)propyl]amino]ethyl]phenyl]-4-iodobenzenesulfonamide is titrated at the β3 receptor at concentration of 10^-10 M to 10^-5 M. Unknown ligands are titrated at all 3 β-adrenergic receptor subtypes at a final concentration in the assay of 10^-10 M to 10^-5 M to determine the EC50. The EC50 is defined as the concentration of compound that gives 50% activation of its own maximum. Data are analyzed using Microsoft Excel and Graphpad Prism or an internally developed data analysis software package.

T1 sequence (P13945 whole entry): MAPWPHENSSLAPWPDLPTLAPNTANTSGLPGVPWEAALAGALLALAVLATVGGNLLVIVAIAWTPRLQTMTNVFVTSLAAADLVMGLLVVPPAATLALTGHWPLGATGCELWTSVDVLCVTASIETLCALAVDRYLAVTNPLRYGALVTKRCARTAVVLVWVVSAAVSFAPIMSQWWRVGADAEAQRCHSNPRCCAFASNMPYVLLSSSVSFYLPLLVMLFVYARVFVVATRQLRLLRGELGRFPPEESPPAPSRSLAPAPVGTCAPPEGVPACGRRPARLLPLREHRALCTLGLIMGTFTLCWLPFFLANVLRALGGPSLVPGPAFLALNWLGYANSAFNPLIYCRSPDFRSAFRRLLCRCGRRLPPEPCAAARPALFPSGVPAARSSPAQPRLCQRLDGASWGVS

EC50 | SMILES
1 to 10 nM | O=C(Cc1nc2c(s1)CCC2C(=O)Nc1ccc(CC2CC[C@H]([C@H](O)c3cccnc3)N2)cc1)NCc1ccccc1 (single isomer, unassigned) [Example 136]
1 to 10 nM | O=C(O)c1nc2c(s1)CCC2C(=O)Nc1ccc(CC2CC[C@H]([C@H](O)c3cccnc3)N2)cc1 (single isomer, unassigned) [Example 137]
11 to 100 nM | O=C(O)c1nc2c(s1)CCC2C(=O)Nc1ccc(CC2CC[C@H]([C@H](O)c3cccnc3)N2)cc1 (single isomer, unassigned) [Example 138]
101 to 1000 nM | O=C(Nc1ccc(CC2CC[C@H]([C@H](O)c3cccnc3)N2)cc1)C1CCCc2ccnn21 (single isomer, unassigned) [Example 139]
11 to 100 nM | O=C(Nc1ccc(CC2CC[C@H]([C@H](O)c3cccnc3)N2)cc1)C1CCCc2ccnn21 (single isomer, unassigned) [Example 140]
1 to 10 nM | CC(C(=O)Nc1ccc(CC2CC[C@H]([C@H](O)c3cccnc3)N2)cc1)n1cncn1 (single isomer, unassigned) [Example 141]
1 to 10 nM | CC(C(=O)Nc1ccc(CC2CC[C@H]([C@H](O)c3cccnc3)N2)cc1)n1nccn1 (single isomer, unassigned) [Example 142]
1 to 10 nM | CC(C(=O)Nc1ccc(CC2CC[C@H]([C@H](O)c3cccnc3)N2)cc1)n1nccn1 (single isomer, unassigned) [Example 143]
1 to 10 nM | CC(C(=O)Nc1ccc(CC2CC[C@H]([C@H](O)c3cccnc3)N2)cc1)c1cnccn1 (single isomer, unassigned) [Example 144]
1 to 10 nM | CC(C(=O)Nc1ccc(CC2CC[C@H]([C@H](O)c3cccnc3)N2)cc1)c1cnccn1 (single isomer, unassigned) [Example 145]
11 to 100 nM | CC(F)(C(=O)Nc1ccc(CC2CC[C@H]([C@H](O)c3cccnc3)N2)cc1)c1ccccn1 (single isomer, unassigned) [Example 146]
101 to 1000 nM | CC(F)(C(=O)Nc1ccc(CC2CC[C@H]([C@H](O)c3cccnc3)N2)cc1)c1ccccn1 (single isomer, unassigned) [Example 147]
1 to 10 nM | CC(C(=O)Nc1ccc(CC2CC[C@H]([C@H](O)c3cccnc3)N2)cc1)n1ccnn1 (single isomer, unassigned) [Example 148]
1 to 10 nM | CC(C(=O)Nc1ccc(CC2CC[C@H]([C@H](O)c3cccnc3)N2)cc1)n1ccnn1 (single isomer, unassigned) [Example 149]
1 to 10 nM | COC(=O)c1cn(C(C)C(=O)Nc2ccc(CC3CC[C@H]([C@H](O)c4cccnc4)N3)cc2)nn1 (single isomer, unassigned) [Example 150]
11 to 100 nM | COC(=O)c1cn(C(C)C(=O)Nc2ccc(CC3CC[C@H]([C@H](O)c4cccnc4)N3)cc2)nn1 (single isomer, unassigned) [Example 151]
1 to 10 nM | Cc1nnc(C(C)C(=O)Nc2ccc(CC3CC[C@H]([C@H](O)c4cccnc4)N3)cc2)[nH]1 (single isomer, unassigned) [Example 152]
11 to 100 nM | Cc1nnc(C(C)C(=O)Nc2ccc(CC3CC[C@H]([C@H](O)c4cccnc4)N3)cc2)[nH]1 (single isomer, unassigned) [Example 153]
1 to 10 nM | Cc1[nH]nc2c1CCC2C(=O)Nc1ccc(CC2CC[C@H]([C@H](O)c3cccnc3)N2)cc1 (single isomer, unassigned) [Example 154]
11 to 100 nM | Cc1[nH]nc2c1CCC2C(=O)Nc1ccc(CC2CC[C@H]([C@H](O)c3cccnc3)N2)cc1 (single isomer, unassigned) [Example 155]
1 to 10 nM | O=C(Nc1ccc(CC2CC[C@H]([C@H](O)c3cccnc3)N2)cc1)C1CCc2sc(F)nc21 (single isomer, unassigned) [Example 156]
1 to 10 nM | O=C(Nc1ccc(CC2CC[C@H]([C@H](O)c3cccnc3)N2)cc1)C1CCc2sc(F)nc21 (single isomer, unassigned) [Example 157]
< 1 nM | O=C(Nc1ccc(CC2CC[C@H]([C@H](O)c3cccnc3)N2)cc1)C1CCc2sc(Br)nc21 (single isomer, unassigned) [Example 158]
11 to 100 nM | O=C(Nc1ccc(CC2CC[C@H]([C@H](O)c3cccnc3)N2)cc1)C1CCc2sc(Br)nc21 (single isomer, unassigned) [Example 159]

EC50 | SMILES
1 to 10 nM | O=C(Nc1ccc(CC2CC[C@H]([C@H](O)c3cccnc3)N2)cc1)C1CCc2nccc(=O)n21 (single isomer, unassigned) [Example 160]
1 to 10 nM | O=C(Nc1ccc(CC2CC[C@H]([C@H](O)c3cccnc3)N2)cc1)C1CCc2nccc(=O)n21 (single isomer, unassigned) [Example 161]
1 to 10 nM | CC(C(=O)Nc1ccc(CC2CC[C@H]([C@H](O)c3cccnc3)N2)cc1)n1ncccc1=O (single isomer, unassigned) [Example 162]
1 to 10 nM | CC(C(=O)Nc1ccc(C[C@@H]2CC[C@H]([C@H](O)c3cccnc3)N2)cc1)n1ncccc1=O (single isomer, unassigned) [Example 163]
1 to 10 nM | CC(C(=O)Nc1ccc(CC2CC[C@H]([C@H](O)c3cccnc3)N2)cc1)n1cnccc1=O (single isomer, unassigned) [Example 164]
1 to 10 nM | CC(C(=O)Nc1ccc(CC2CC[C@H]([C@H](O)c3cccnc3)N2)cc1)n1cnccc1=O (single isomer, unassigned) [Example 165]
1 to 10 nM | CC(C(=O)Nc1ccc(CC2CC[C@H]([C@H](O)c3cccnc3)N2)cc1)n1cccnc1=O (single isomer, unassigned) [Example 166]
1 to 10 nM | CC(C(=O)Nc1ccc(C[C@@H]2CC[C@H]([C@H](O)c3cccnc3)N2)cc1)n1cccnc1=O (single isomer, unassigned) [Example 167]
1 to 10 nM | Cc1noc2c1CCC2C(=O)Nc1ccc(CC2CC[C@H]([C@H](O)c3cccnc3)N2)cc1 (single isomer, unassigned) [Example 168]
11 to 100 nM | Cc1noc2c1CCC2C(=O)Nc1ccc(CC2CC[C@H]([C@H](O)c3cccnc3)N2)cc1 (single isomer, unassigned) [Example 169]
11 to 100 nM | Cc1nnc2n1CCC2C(=O)Nc1ccc(CC2CC[C@H]([C@H](O)c3cccnc3)N2)cc1 (single isomer, unassigned) [Example 170]
11 to 100 nM | Cc1nnc2n1CCC2C(=O)Nc1ccc(CC2CC[C@H]([C@H](O)c3cccnc3)N2)cc1 (single isomer, unassigned) [Example 171]
1 to 10 nM | CC(C(=O)Nc1ccc(CC2CC[C@H]([C@H](O)c3cccnc3)N2)cc1)c1nccs1 (single isomer, unassigned) [Example 174]
1 to 10 nM | CC(C(=O)Nc1ccc(CC2CC[C@H]([C@H](O)c3cccnc3)N2)cc1)c1nccs1 (single isomer, unassigned) [Example 175]
11 to 100 nM | Cc1cc(C(C)C(=O)Nc2ccc(CC3CC[C@H]([C@H](O)c4cccnc4)N3)cc2)[nH]n1 (single isomer, unassigned) [Example 176]
101 to 1000 nM | Cc1cc(C(C)C(=O)Nc2ccc(CC3CC[C@H]([C@H](O)c4cccnc4)N3)cc2)[nH]n1 (single isomer, unassigned) [Example 177]
1 to 10 nM | CC(C(=O)Nc1ccc(CC2CC[C@H]([C@H](O)c3cccnc3)N2)cc1)c1ccn[nH]1 (single isomer, unassigned) [Example 178]
11 to 100 nM | CC(C(=O)Nc1ccc(CC2CC[C@H]([C@H](O)c3cccnc3)N2)cc1)c1ccn[nH]1 (single isomer, unassigned) [Example 179]
11 to 100 nM | CC(C(=O)Nc1ccc(CC2CC[C@H]([C@H](O)c3cccnc3)N2)cc1)c1nnn(C)n1 (single isomer, unassigned) [Example 180]
11 to 100 nM | CC(C(=O)Nc1ccc(CC2CC[C@H]([C@H](O)c3cccnc3)N2)cc1)c1nnn(C)n1 (single isomer, unassigned) [Example 181]
11 to 100 nM | CC(C(=O)Nc1ccc(CC2CC[C@H]([C@H](O)c3cccnc3)N2)cc1)n1cnnn1 (single isomer, unassigned) [Example 182]
1 to 10 nM | CC(C(=O)Nc1ccc(CC2CC[C@H]([C@H](O)c3cccnc3)N2)cc1)n1cnnn1 (single isomer, unassigned) [Example 183]
1 to 10 nM | CCC(C(=O)Nc1ccc(CC2CC[C@H]([C@H](O)c3cccnc3)N2)cc1)n1cccn1 (single isomer, unassigned) [Example 184]
